Assay results as given in the supplement of paper PMC8671470.

Columns and labels:
Conditions in all cases: 72 h
BV-173 = system: BV-173
How it was run: (§1)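 Fifteen myeloid leukaemia cell lines were seeded in RPMI 1640 at a density titrated to the linear growth range. Each line went into 384-well plates with compounds acoustically pre-printed at five tenfold doses from 1 to 10,000 nM, in duplicate, and was incubated for 72 h at 37 °C with 5% CO2. Luminescent ATP viability was normalised to vehicle and to a positive control at 10 µM. The IC50 came from four-parameter log-logistic dose–response fits.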

HEL = system: HEL
How it was run: as §1

HL-60 = system: HL-60
How it was run: as §1

K-562 = system: K-562
How it was run: as §1

KCL-22 = system: KCL-22
How it was run: as §1

KG-1 = system: KG-1
How it was run: as §1

KU-812 = system: KU-812
How it was run: as §1

LAMA-84 = system: LAMA-84
How it was run: as §1

ML-2 = system: ML-2
How it was run: as §1

MOLM-13 = system: MOLM-13
How it was run: as §1

MV4-11 = system: MV4-11
How it was run: as §1

Mono-Mac-6 = system: Mono-Mac-6
How it was run: as §1

NOMO-1 = system: NOMO-1
How it was run: as §1

SHI-1 = system: SHI-1
How it was run: as §1

THP-1 = system: THP-1
How it was run: as §1

SMILES	IC50 (cell viability) (BV-173) [nM]	IC50 (cell viability) (HEL) [nM]	IC50 (cell viability) (HL-60) [nM]	IC50 (cell viability) (K-562) [nM]	IC50 (cell viability) (KCL-22) [nM]	IC50 (cell viability) (KG-1) [nM]	IC50 (cell viability) (KU-812) [nM]	IC50 (cell viability) (LAMA-84) [nM]	IC50 (cell viability) (ML-2) [nM]	IC50 (cell viability) (MOLM-13) [nM]	IC50 (cell viability) (MV4-11) [nM]	IC50 (cell viability) (Mono-Mac-6) [nM]	IC50 (cell viability) (NOMO-1) [nM]	IC50 (cell viability) (SHI-1) [nM]	IC50 (cell viability) (THP-1) [nM]
Nc1ccn([C@@H]2O[C@H](CO)[C@@H](O)[C@@H]2O)c(=O)n1 [Cytarabine]	4.72	47.8	430	92	38.9	116	34	58.5	68.1	80.6	566	364	2290	135	4770
CCOc1ccc(Cc2cc([C@@H]3O[C@H](CO)[C@@H](O)[C@H](O)[C@H]3O)ccc2Cl)cc1 [Dapagliflozin]	> 10000	> 10000	> 10000	> 10000	> 10000	> 10000	> 10000	> 10000	> 10000	> 10000	> 10000	> 10000	> 10000	> 10000	> 10000
CCN(CC)CCN(Cc1ccc(-c2ccc(C(F)(F)F)cc2)cc1)C(=O)Cn1c(SCc2ccc(F)cc2)nc(=O)c2c1CCC2 [Darapladib]	2150	2630	2070	1640	2320	2420	1980	2230	2620	2150	3360	2900	2820	2590	2940
O=C(O)C(Cl)Cl [Dichloroacetate]	> 10000	> 10000	> 10000	> 10000	> 10000	> 10000	> 10000	> 10000	> 10000	> 10000	> 10000	> 10000	> 10000	> 10000	> 10000
O=C1Oc2ccccc2C(=O)C1CC1C(=O)Oc2ccccc2C1=O (stereo not given) [Dicumarol]	> 10000	> 10000	> 10000	> 10000	> 10000	> 10000	> 10000	> 10000	> 10000	> 10000	> 10000	> 10000	> 10000	> 10000	> 10000
CC12CCC(O)CC1CCC1C2CCC2(C)C(C3=CC(=O)OC3)CCC12O (stereo not given) [Digitoxigenin]	240	336	338	184	331	264	368	234	350	122	323	213	437	358	286
C[C@H]1O[C@@H](O[C@H]2[C@@H](O)C[C@H](O[C@H]3[C@@H](O)C[C@H](O[C@H]4CC[C@@]5(C)[C@H](CC[C@@H]6[C@@H]5C[C@@H](O)[C@]5(C)[C@@H](C7=CC(=O)OC7)CC[C@]65O)C4)O[C@@H]3C)O[C@@H]2C)C[C@H](O)[C@@H]1O [Digoxin]	36.1	102	34.2	85.5	55.5	63.9	64.7	54.6	38.6	34	40.2	42.4	123	45.3	75.2
O=c1c2ccccc2[se]n1-c1ccccc1 [Ebselen]	> 10000	> 10000	> 10000	> 10000	> 10000	> 10000	> 10000	> 10000	> 10000	> 10000	> 10000	> 10000	> 10000	> 10000	> 10000
